What was measured:
[1] = system: mouse model of human alcoholic hepatitis; assay: AH (NIAAA) mouse model, 8-week efficacy and safety study, alone and with prednisolone
Source text: Mice were fed with the ethanol diet for four weeks, followed by 4 weeks of intervention (8 weeks total treatment).
Livers were collected at the end-point from all mice and weighed. Liver samples were processed for histology to assess steatosis, inflammatory infiltrates and fibrosis. Briefly, liver tissue was fixed in 4% paraformaldehyde and paraffin-embedded, sectioned into 5 m thickness, and stained with hematoxylin-eosin (H&E), Oil-Red O staining, and Masson's trichrome staining.
Safety testing: The safety of indeglitazar treatment was assessed by body weight measurements and full necropsy at endpoint. Mice were terminated from the experiment by isoflurane anesthesia and blood was collected by a cardiac bleed into EDTA-treated tubes, and then centrifuged to obtain plasma to conduct clinical chemistry including full liver and renal toxicology panel. A portion of the liver was analyzed for liver triglycerides and cholesterol levels by biochemical assays. […] Hearts were weighted and fixed in 10% NBF, paraffin embedded, and sectioned into 4-μm thick slices. H&E staining was used to investigate myocardial cell hypertrophy, and ventricle diameters by microscopy.

[2] = system: alcoholic hepatitis; settings: human, in vivo; cited from earlier work
[3] = system: NASH; settings: human, in vivo; cited from earlier work
[4] = indeglitazar 50 mg/kg, prednisolone 10 mg/kg, vs EtOH-treated vehicle control
[5] = indeglitazar 50 mg/kg, prednisolone 10 mg/kg, vs ethanol-treated vehicle control
[6] = indeglitazar 50 mg/kg, prednisolone 10 mg/kg, vs vehicle+EtOH
[7] = indeglitazar 50 mg/kg/day, prednisolone 10 mg/kg/day, vs ethanol-treated vehicle control

## C[C@]12C=CC(=O)C=C1CC[C@@H]1[C@@H]2[C@@H](O)C[C@@]2(C)[C@H]1CC[C@]2(O)C(=O)CO [Prednisolone, prednisolone, reference compound]
[1]; indeglitazar 50 mg/kg, prednisolone 10 mg/kg, data not shown
  liver histopathology: steatosis, hepatocellular karyomegaly, and ballooning: no significant effect
[1]; [4]
  effect on liver hydroxyproline: no significant effect
  effect on plasma adiponectin: no significant effect
[1]; [5]
  effect on ALT: no significant effect
  effect on AST: no significant effect
  effect on total bilirubin: increased
[1]; [6]
  decrease of plasma TGFβ: 56%
  increase of adiponectin: +3.4%
[1]; [7]
  effect on body weight: Neither EtOH (vs no EtOH vehicle control), indeglitazar, or prednisolone had a significant effect
  effect on heart weight (actual): Neither EtOH (vs no EtOH vehicle control), indeglitazar, or prednisolone had a significant effect
[1]; indeglitazar 50 mg/kg/day, prednisolone 10 mg/kg/day, vs ethanol-treated vehicle control, male and female mice
  effect on overall survival: no significant effect
[1]; prednisolone 10 mg/kg, vs vehicle+EtOH
  effect on liver triglycerides: no significant effect
[1]; prednisolone 10 mg/kg, vs vehicle+EtOH, P<0.0001
  increase of plasma TNF-α: 123%
[1]; prednisolone 10 mg/kg, vs vehicle+EtOH, P>0.05
  change of hydroxyproline (signed): −7%

## CC(=O)CCCCn1c(=O)c2c(ncn2C)n(C)c1=O [pentoxifylline]
[2]
  overall survival and liver damage in AH patients: failed to improve overall survival or to decrease liver damage

## vitamin E
[3]
  improvement of NASH, share of people treated: about half
